Experimental data from ChEMBL document CHEMBL1201862, “PubChem BioAssay data set” (2004).
Calls of active or inactive are those of the source.

Tests used:
[1] = target: T1, Sentrin-specific protease 6 (Homo sapiens, UniProt Q9GZR1); format: functional;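 also: Luminescence-based dose-response confirmatory assay of SENP6 inhibition, following up an ultra-high-throughput screen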
T1 sequence (Q9GZR1 whole entry): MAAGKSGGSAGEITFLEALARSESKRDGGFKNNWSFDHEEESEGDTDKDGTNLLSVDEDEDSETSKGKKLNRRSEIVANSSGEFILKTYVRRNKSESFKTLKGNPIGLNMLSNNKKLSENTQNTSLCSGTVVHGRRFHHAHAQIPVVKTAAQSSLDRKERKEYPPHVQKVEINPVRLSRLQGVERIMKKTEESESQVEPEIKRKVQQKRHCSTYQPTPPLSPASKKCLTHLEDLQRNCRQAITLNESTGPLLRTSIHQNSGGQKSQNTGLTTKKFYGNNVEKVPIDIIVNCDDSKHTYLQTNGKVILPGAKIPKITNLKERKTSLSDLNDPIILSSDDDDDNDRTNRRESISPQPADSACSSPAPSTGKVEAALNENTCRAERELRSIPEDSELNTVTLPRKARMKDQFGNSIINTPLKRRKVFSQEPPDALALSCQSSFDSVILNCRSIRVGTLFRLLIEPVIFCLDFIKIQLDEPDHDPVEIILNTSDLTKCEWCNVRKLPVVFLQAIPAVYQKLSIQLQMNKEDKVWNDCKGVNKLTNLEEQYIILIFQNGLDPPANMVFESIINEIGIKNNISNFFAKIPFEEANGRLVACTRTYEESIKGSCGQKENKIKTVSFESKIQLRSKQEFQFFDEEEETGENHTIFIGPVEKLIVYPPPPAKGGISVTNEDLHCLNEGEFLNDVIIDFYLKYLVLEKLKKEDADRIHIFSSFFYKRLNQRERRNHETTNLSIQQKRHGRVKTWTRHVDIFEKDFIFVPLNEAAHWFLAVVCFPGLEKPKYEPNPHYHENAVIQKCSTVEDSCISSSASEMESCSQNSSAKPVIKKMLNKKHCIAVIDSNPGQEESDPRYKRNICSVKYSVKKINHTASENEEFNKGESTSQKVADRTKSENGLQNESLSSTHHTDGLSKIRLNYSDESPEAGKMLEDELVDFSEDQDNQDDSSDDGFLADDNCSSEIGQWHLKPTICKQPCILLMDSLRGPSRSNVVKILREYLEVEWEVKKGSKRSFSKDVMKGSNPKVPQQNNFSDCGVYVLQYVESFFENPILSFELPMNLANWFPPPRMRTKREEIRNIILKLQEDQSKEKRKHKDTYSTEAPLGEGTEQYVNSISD

[2] = target: T2, Rac GTPase-activating protein 1 (Homo sapiens, UniProt Q9H0H5); assay: blockers of MgcRacGAP-driven Rac1 GTP hydrolysis – biochemical, ADP Hunter fluorescence, primary and confirmatory, confirmation (AID 624330); format: functional
T2 sequence (Q9H0H5 whole entry): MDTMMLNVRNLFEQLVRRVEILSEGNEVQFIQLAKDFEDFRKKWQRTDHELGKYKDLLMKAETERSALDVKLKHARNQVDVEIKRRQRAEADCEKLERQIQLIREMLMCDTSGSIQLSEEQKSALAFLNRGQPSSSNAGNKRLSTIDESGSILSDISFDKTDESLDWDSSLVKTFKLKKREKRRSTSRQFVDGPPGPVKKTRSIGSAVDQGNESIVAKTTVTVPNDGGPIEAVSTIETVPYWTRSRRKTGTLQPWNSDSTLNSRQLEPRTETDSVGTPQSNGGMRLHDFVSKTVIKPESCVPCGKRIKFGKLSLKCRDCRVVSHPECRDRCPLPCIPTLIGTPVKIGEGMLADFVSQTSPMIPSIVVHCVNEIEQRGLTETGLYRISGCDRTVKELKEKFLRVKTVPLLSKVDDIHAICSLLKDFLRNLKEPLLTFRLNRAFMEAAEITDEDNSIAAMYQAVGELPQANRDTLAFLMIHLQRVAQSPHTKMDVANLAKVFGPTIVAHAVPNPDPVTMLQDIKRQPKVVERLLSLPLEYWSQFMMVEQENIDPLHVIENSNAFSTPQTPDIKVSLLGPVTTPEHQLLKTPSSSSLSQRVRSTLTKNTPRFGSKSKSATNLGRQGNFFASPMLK

[3] = target: T3, 1-phosphatidylinositol 4,5-bisphosphate phosphodiesterase beta-3 (Homo sapiens, UniProt Q01970); assay: Fluorescence-based biochemical high throughput dose response assay to identify inhibitors of phospholipase C isozymes (PLC-B3).
T3 sequence (Q01970 whole entry): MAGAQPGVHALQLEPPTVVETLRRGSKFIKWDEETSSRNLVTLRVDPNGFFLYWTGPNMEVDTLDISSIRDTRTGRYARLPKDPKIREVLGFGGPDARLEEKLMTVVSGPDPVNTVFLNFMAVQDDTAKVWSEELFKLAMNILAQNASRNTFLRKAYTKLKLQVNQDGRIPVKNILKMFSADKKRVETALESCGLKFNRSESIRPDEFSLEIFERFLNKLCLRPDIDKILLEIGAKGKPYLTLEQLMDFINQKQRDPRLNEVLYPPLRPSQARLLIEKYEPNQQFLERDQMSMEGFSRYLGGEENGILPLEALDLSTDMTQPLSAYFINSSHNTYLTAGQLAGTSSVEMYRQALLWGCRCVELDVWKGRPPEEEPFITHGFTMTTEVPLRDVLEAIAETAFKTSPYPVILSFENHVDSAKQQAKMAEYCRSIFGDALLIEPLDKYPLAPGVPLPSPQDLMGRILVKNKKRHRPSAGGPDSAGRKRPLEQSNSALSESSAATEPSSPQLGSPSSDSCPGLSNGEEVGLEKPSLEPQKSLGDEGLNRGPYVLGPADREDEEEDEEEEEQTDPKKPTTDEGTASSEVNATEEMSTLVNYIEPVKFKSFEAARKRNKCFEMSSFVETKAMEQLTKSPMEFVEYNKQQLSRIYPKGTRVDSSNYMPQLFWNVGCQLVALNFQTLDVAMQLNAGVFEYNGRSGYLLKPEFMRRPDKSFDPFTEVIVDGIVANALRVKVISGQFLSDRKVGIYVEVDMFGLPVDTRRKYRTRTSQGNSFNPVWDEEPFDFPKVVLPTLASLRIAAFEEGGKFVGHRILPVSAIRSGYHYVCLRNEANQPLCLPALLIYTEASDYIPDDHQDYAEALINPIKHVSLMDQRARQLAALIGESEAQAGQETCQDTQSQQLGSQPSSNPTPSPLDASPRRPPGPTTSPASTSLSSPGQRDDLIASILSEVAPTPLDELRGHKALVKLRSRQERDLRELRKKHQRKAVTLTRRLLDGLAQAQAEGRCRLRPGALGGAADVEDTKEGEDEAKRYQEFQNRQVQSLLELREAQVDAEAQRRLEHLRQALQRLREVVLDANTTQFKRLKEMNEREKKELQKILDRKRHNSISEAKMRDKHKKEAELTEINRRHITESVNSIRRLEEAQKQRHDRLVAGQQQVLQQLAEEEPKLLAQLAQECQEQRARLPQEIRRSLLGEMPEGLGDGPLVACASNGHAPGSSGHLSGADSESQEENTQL

CN(C)S(=O)(=O)Oc1cccc(C(=O)Nc2ccc(Cl)c(Cl)c2)c1
IC50 [1]: 13.6 µM (active)

Cc1ccc2[nH]c(/C(C#N)=C/c3ccc(O)c(O)c3)nc2c1
IC50 [2]: 22.3 µM (active)
IC50 [1]: 27.9 µM (active)

O=C(NN1C(=O)CSC1=S)C(=O)NN1C(=O)CSC1=S
IC50 [3]: > 122 µM (inactive)

O=C1NC(=S)S/C1=C\C=C\c1ccc([N+](=O)[O-])o1
IC50 [3]: > 122 µM (inactive)
IC50 [2]: 37.7 µM (active)
